Laboratory results taken from patent US11654140B2, “Treatment of ocular inflammatory diseases using laquinimod” (Active Biotech AB, priority 2012, dated 2023).

Tests used:
[1] = test system: S-antigen-induced experimental autoimmune uveitis (EAU) in rats; assay: EAU model in rats, histological ocular evaluation (Example 1); format: in vivo, rat; conditions: Day 16; for Histological ocular evaluation of both eyes, mean histologic grade: 10 μl once daily both eyes from Day 7, scale 0-7
Protocol: (§1) A 1% (10 mg/ml) and a 5% (50 mg/ml) solution of laquinimod sodium were prepared in sterile water. Dissolution of laquinimod powder was achieved by shaking, stirring, or low-speed vortex. The solutions were stored for up to 2 weeks at 2-8° C. and up to 24 hours at room temperature. Laquinimod solutions were prepared under light protection and were protected from light for the duration of the experiment. […] One 100 mg/4 ml in olive oil dose was prepared every 2 days and stored at room temperature.
(§2) Thirty two female albino Lewis rats were randomly divided into four (4) groups of eight (8) rats. Ocular inflammation was induced at Day 1 by injection of 100 μl of human S-antigen (100 μg) in Freud's complete adjuvant (4 mg/ml) into the footpad of each rat, and an intraperitoneal injection of 1 μg/100 μl pertussis toxin.
(§3) Beginning on Day 7 until the end of the study, each animal group was treated with a test solution in both eyes as shown in Table 1:
Immediately after euthanasia (i.e., at Day 16), both eyeballs of all rats of each group were enucleated and prepared for histological examination. They were fixed in Bouin-Hollande solution, dehydrated, and embedded in paraffin wax. They were then cut into eight sections, approximate five to seven micrometers thick and stained with Trichome of Masson.

[2] = test system: S-antigen-induced experimental autoimmune uveitis (EAU) in rats; assay: S-antigen-induced experimental autoimmune uveitis in rats (EAU model), slit lamp clinical score (Example 1); format: in vivo, rat; conditions: for Slit lamp ocular evaluation of both eyes, Incidence % / Slit lamp ocular evaluation of both eyes, mean clinical score: 10 μl once daily both eyes from Day 7; for Slit lamp ocular evaluation of both eyes, mean clinical score: score 0-6
Protocol: as §1, §2, §3
Both eyes of each rat were examined with a slit-lamp at baseline and then every 2 days from Day 10 to the end of the study. Fifteen minutes prior to each examination, 10 μl of Mydriaticum (0.5% tropicamide) was instilled for papillary dilatation.
The effect of test material and reference material on ocular inflammation was measured with slit lamp evaluation and scored using the clinical scoring as shown in Table 3: […]

[3] = test system: subject suffering from allergic conjunctivitis; assay: Laquinimod for treating allergic conjunctivitis (Example 8); format: in vivo; conditions: 0.2 mg-0.5 mg laquinimod/day
Protocol: In the examples 4-9 below, the administration of the composition is once daily. The administration can be repeated daily for a period of one, two, three or four days, up to 14 days, or longer as necessary.
A laquinimod composition as described herein is administered to a subject suffering from allergic conjunctivitis at 0.2 mg-0.5 mg laquinimod/day. The administration of the composition is effective to treat the subject suffering from allergic conjunctivitis. The administration of the composition is also effective to reduce intraocular inflammation in the subject. The administration of the composition is also effective to inhibit late ocular anaphylaxis in the subject. The administration of the composition is also effective reduce eosinophil infiltration into the conjunctiva of the subject.

## CCN(C(=O)c1c(O)c2c(Cl)cccc2n(C)c1=O)c1ccccc1 [Laquinimod, laquinimod]
[1]; 1% Laquinimod
  Histological ocular evaluation of both eyes, mean histologic grade: 1.2
[1]; 1% Laquinimod, listed as laquinimod
  Histological ocular evaluation of both eyes, mean histologic grade: 1.2±2.2
[1]; 1% laquinimod once per day
  eyes showing significant destruction of the retina associated with infiltration of inflammatory cells: four eyes out of sixteen
[1]; 5% Laquinimod
  Histological ocular evaluation of both eyes, mean histologic grade: 0.7
[1]; 5% Laquinimod, listed as laquinimod
  Histological ocular evaluation of both eyes, mean histologic grade: 0.7±1.9
[1]; 5% laquinimod once per day
  eyes showing destruction of the retina associated with infiltration of inflammatory cells: two eyes (from two different animals) out of sixteen
[2]; 1% Laquinimod, Baseline
  Slit lamp ocular evaluation of both eyes, Incidence %: 0.0%
  Slit lamp ocular evaluation of both eyes, mean clinical score: 0.0
[2]; 1% Laquinimod, Day 10
  Slit lamp ocular evaluation of both eyes, Incidence %: 6.3%
  Slit lamp ocular evaluation of both eyes, mean clinical score: 0.1
[2]; 1% Laquinimod, Day 12
  Slit lamp ocular evaluation of both eyes, Incidence %: 6.3%
  Slit lamp ocular evaluation of both eyes, mean clinical score: 0.1
[2]; 1% Laquinimod, Day 14
  Slit lamp ocular evaluation of both eyes, Incidence %: 18.8%
  Slit lamp ocular evaluation of both eyes, mean clinical score: 0.8
[2]; 1% Laquinimod, Day 16
  Slit lamp ocular evaluation of both eyes, Incidence %: 31.3%
  Slit lamp ocular evaluation of both eyes, mean clinical score: 1.3
[2]; 1% Laquinimod, Day 16, listed as laquinimod
  Slit lamp ocular evaluation of both eyes, mean clinical score: 1.3±2.1
[2]; 5% Laquinimod, Baseline
  Slit lamp ocular evaluation of both eyes, Incidence %: 0.0%
  Slit lamp ocular evaluation of both eyes, mean clinical score: 0.0
[2]; 5% Laquinimod, Day 10
  Slit lamp ocular evaluation of both eyes, Incidence %: 0.0%
  Slit lamp ocular evaluation of both eyes, mean clinical score: 0.0
[2]; 5% Laquinimod, Day 12
  Slit lamp ocular evaluation of both eyes, Incidence %: 0.0%
  Slit lamp ocular evaluation of both eyes, mean clinical score: 0.0
[2]; 5% Laquinimod, Day 14
  Slit lamp ocular evaluation of both eyes, Incidence %: 6.3%
  Slit lamp ocular evaluation of both eyes, mean clinical score: 0.3
[2]; 5% Laquinimod, Day 16
  Slit lamp ocular evaluation of both eyes, Incidence %: 12.5%
  Slit lamp ocular evaluation of both eyes, mean clinical score: 0.6
[2]; 5% Laquinimod, Day 16, listed as laquinimod
  Slit lamp ocular evaluation of both eyes, mean clinical score: 0.6±1.5
[2]; 5% laquinimod solution once per day, Day 16
  rats tested that demonstrated no intraocular inflammation: Six out of eight
[3]
  treat the subject suffering from allergic conjunctivitis: effective
[3]; allergic conjunctivitis
  inhibit late ocular anaphylaxis in the subject: effective
  reduce eosinophil infiltration into the conjunctiva of the subject: effective
  reduce intraocular inflammation in the subject: effective
